In patent US11753446B2, “Beta-hairpin peptidomimetics” (POLYPHOR AG, priority 2014, dated 2023):
Where two headings read alike, the source gives them in different places. Where a SMILES comes first, the peptide text is derived from it. Bridges are numbered along the chain shown (N, C = ends). [ ]: non-standard residue; d: D form. Tle = CC(C)(C)[C@H](N)C(=O)O; dDab = NCC[C@@H](N)C(=O)O; Orn = NCCC[C@H](N)C(=O)O; Dab = NCC[C@H](N)C(=O)O

Assays:
[1] = tested on: Acinetobacter baumannii DSM 30008; assay type: cell-based
How it was run: (§1)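 Peptide activity was tested by NCCLS broth microdilution with slight modifications. Bacteria were diluted in cation-adjusted Mueller-Hinton II broth to approximately 10^6 CFU/mL against a 0.5 McFarland standard. They were then exposed to two-fold serial peptide dilutions in broth containing 0.002% final polysorbate 80.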

[2] = tested on: Klebsiella pneumoniae ATCC 13883; assay type: cell-based
How it was run: as §1

[3] = tested on: Escherichia coli ATCC 25922; assay type: cell-based
How it was run: as §1

[4] = tested on: human red blood cells (hRBC); assay: Hemolysis: hemolytic activity at 100 μg/mL, 1 h at 37° C.
How it was run: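 Peptides at 100 μg/mL incubated with washed 20% (v/v) human erythrocytes (~0.9×10^9 cells/mL) for 1 h at 37 °C with shaking. Released hemoglobin read at OD 540 nm in supernatant; 0% and 100% lysis from PBS/0.001% acetic acid and 2.5% Triton X-100.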

[5] = Mueller-Hinton II broth, 18-20 hours at 35° C.

Compound	Acinetobacter baumannii DSM 30008 MIC ([1]; DSM 30008)	Klebsiella pneumoniae ATCC 13883 MIC ([2]; ATCC 13883)	Escherichia coli ATCC 25922 MIC ([3]; ATCC 25922)	Hemolysis at 100 μg/mL ([4]; red cells of human, 1 h, 100)	Acinetobacter baumannii DSM 30008 MIC [1, 5]	Klebsiella pneumoniae ATCC 13883 MIC [2, 5]	Escherichia coli ATCC 25922 MIC [3, 5]	Hemolysis at 100 μg/mL ([4]; 100 μg/mL, 20% hRBC, 1 h at 37° C.)
CC(C)C[C@@H]1NC(=O)[C@H](CCCNC(=N)N)NC(=O)[C@@H](CCN)NC(=O)[C@H](C(C)C)NC(=O)[C@@H]2CSSC[C@H](NC1=O)C(=O)N[C@@H](Cc1ccc(O)cc1)C(=O)N[C@@H](CCC(N)=O)C(=O)N[C@@H](CCCN)C(=O)N[C@H](CCN)C(=O)N[C@@H](CCN)C(=O)N[C@@H](Cc1c[nH]c3ccccc13)C(=O)N[C@@H](CO)C(=O)N[C@@H](Cc1ccc(O)cc1)C(=O)N2 [Example 62, cyclo(-Leu-Cys-Tyr-Gln-Orn-^DDab-Dab-Trp-Ser-Tyr-Cys-Val-^DDab-Arg-)] (HELM PEPTIDE1{C.V.[NCC[C@@H](N[*:1])C(=O)[*:2]].R.L.C.Y.Q.[Orn].[NCC[C@@H](N[*:1])C(=O)[*:2]].[Dab].W.S.Y}$PEPTIDE1,PEPTIDE1,1:R3-6:R3|PEPTIDE1,PEPTIDE1,1:R1-14:R2$$$V2.0)	0.625 µg/mL	1 µg/mL	0.375 µg/mL	2%				
CC(C)C[C@@H]1NC(=O)[C@H](CCCNC(=N)N)NC(=O)[C@@H](CCN)NC(=O)[C@H](CC(C)C)NC(=O)[C@@H]2CSSC[C@H](NC1=O)C(=O)N[C@@H](Cc1ccc(O)cc1)C(=O)N[C@@H](CC(N)=O)C(=O)N[C@@H](CCCN)C(=O)N[C@H](CCN)C(=O)N[C@@H](CCN)C(=O)N[C@@H](Cc1c[nH]c3ccccc13)C(=O)N[C@@H](CO)C(=O)N[C@@H](Cc1ccc(O)cc1)C(=O)N2 [Example 63, cyclo(-Leu-Cys-Tyr-Asn-Orn-^DDab-Dab-Trp-Ser-Tyr-Cys-Leu-^DDab-Arg-)] (HELM PEPTIDE1{C.L.[NCC[C@@H](N[*:1])C(=O)[*:2]].R.L.C.Y.N.[Orn].[NCC[C@@H](N[*:1])C(=O)[*:2]].[Dab].W.S.Y}$PEPTIDE1,PEPTIDE1,1:R3-6:R3|PEPTIDE1,PEPTIDE1,1:R1-14:R2$$$V2.0)	0.625 µg/mL	0.75 µg/mL	1 µg/mL	3%				
CC(C)C[C@@H]1NC(=O)[C@H](CCCNC(=N)N)NC(=O)[C@@H](CCN)NC(=O)[C@H](C(C)(C)C)NC(=O)[C@@H]2CSSC[C@H](NC1=O)C(=O)N[C@@H](Cc1ccc(O)cc1)C(=O)N[C@@H](CC(N)=O)C(=O)N[C@@H](CCCN)C(=O)N[C@H](CCN)C(=O)N[C@@H](CCN)C(=O)N[C@@H](Cc1c[nH]c3ccccc13)C(=O)N[C@@H](CO)C(=O)N[C@@H](Cc1ccc(O)cc1)C(=O)N2 [Example 64, cyclo(-Leu-Cys-Tyr-Asn-Orn-^DDab-Dab-Trp-Ser-Tyr-Cys-tBuGly-^DDab-Arg-)] (cyclo(C[Tle][dDab]RLCYN[Orn][dDab][Dab]WSY); disulfide 1-6)					1.125 µg/mL	1 µg/mL	1 µg/mL	1%
CC(C)C[C@@H]1NC(=O)[C@H](CCCNC(=N)N)NC(=O)[C@@H](CCCCN)NC(=O)[C@H](C(C)C)NC(=O)[C@@H]2CSSC[C@H](NC1=O)C(=O)N[C@@H](Cc1ccc(O)cc1)C(=O)N[C@@H](CC(N)=O)C(=O)N[C@@H](CCCN)C(=O)N[C@H](CCN)C(=O)N[C@@H](CCN)C(=O)N[C@@H](Cc1c[nH]c3ccccc13)C(=O)N[C@@H](CO)C(=O)N[C@@H](Cc1ccc(O)cc1)C(=O)N2 [Example 65, cyclo(-Leu-Cys-Tyr-Asn-Orn-^DDab-Dab-Trp-Ser-Tyr-Cys-Val-^DLys-Arg-)] (HELM PEPTIDE1{C.V.[dK].R.L.C.Y.N.[Orn].[NCC[C@@H](N[*:1])C(=O)[*:2]].[Dab].W.S.Y}$PEPTIDE1,PEPTIDE1,1:R3-6:R3|PEPTIDE1,PEPTIDE1,1:R1-14:R2$$$V2.0)	1.25 µg/mL	1 µg/mL	2 µg/mL	1%				
